Measured values from PubChem BioAssay (NCI).
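A five-concentration, 48-hour dose response in 96-well plates underlies each endpoint, interpolated linearly between surrounding concentrations. The concentration for 50% growth inhibition is given as GI50. TGI: total growth inhibition.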

How the values were obtained:
Assay in all cases: NCI-60 cell line screen, 48 h
K-562 leukemia = test system: K-562 leukemia
DLD-1 colon = test system: DLD-1 colon
SN12C renal = test system: SN12C renal
U251 CNS = test system: U251 CNS
EKVX NSCLC = test system: EKVX NSCLC
A498 renal = test system: A498 renal
MOLT-4 leukemia = test system: MOLT-4 leukemia
HOP-92 NSCLC = test system: HOP-92 NSCLC
NCI-H460 lung = test system: NCI-H460 lung
TK-10 renal = test system: TK-10 renal
786-0 renal = test system: 786-0 renal
OVCAR-3 ovarian = test system: OVCAR-3 ovarian
MALME-3M melanoma = test system: MALME-3M melanoma
CAKI-1 renal = test system: CAKI-1 renal
HCT-116 colon = test system: HCT-116 colon
HT29 colon = test system: HT29 colon
SNB-75 CNS = test system: SNB-75 CNS
KM20L2 colon = test system: KM20L2 colon
KM12 colon = test system: KM12 colon
OVCAR-8 ovarian = test system: OVCAR-8 ovarian
SW-620 colon = test system: SW-620 colon
SF-539 CNS = test system: SF-539 CNS
SK-MEL-5 melanoma = test system: SK-MEL-5 melanoma
OVCAR-4 ovarian = test system: OVCAR-4 ovarian
HCC-2998 colon = test system: HCC-2998 colon
NCI-H522 lung = test system: NCI-H522 lung
SNB-19 CNS = test system: SNB-19 CNS
HL-60(TB) leukemia = test system: HL-60(TB) leukemia
SK-MEL-28 melanoma = test system: SK-MEL-28 melanoma
HOP-62 NSCLC = test system: HOP-62 NSCLC
NCI-H23 lung = test system: NCI-H23 lung
HCT-15 colon = test system: HCT-15 colon
RPMI-8226 leukemia = test system: RPMI-8226 leukemia
HOP-18 NSCLC = test system: HOP-18 NSCLC
LXFL 529 NSCLC = test system: LXFL 529 NSCLC
UO-31 renal = test system: UO-31 renal
DMS 114 small cell lung = test system: DMS 114 small cell lung
OVCAR-5 ovarian = test system: OVCAR-5 ovarian
CCRF-CEM leukemia = test system: CCRF-CEM leukemia
ACHN renal = test system: ACHN renal
UACC-62 melanoma = test system: UACC-62 melanoma
SR leukemia = test system: SR leukemia
A549 NSCLC = test system: A549 NSCLC
SK-OV-3 ovarian = test system: SK-OV-3 ovarian
SF-295 CNS = test system: SF-295 CNS
M19-MEL melanoma = test system: M19-MEL melanoma
UACC-257 melanoma = test system: UACC-257 melanoma
LOX IMVI melanoma = test system: LOX IMVI melanoma
SF-268 CNS = test system: SF-268 CNS
RXF 393 renal = test system: RXF 393 renal
RXF-631 renal = test system: RXF-631 renal
IGROV1 ovarian = test system: IGROV1 ovarian
COLO 205 colon = test system: COLO 205 colon
M14 melanoma = test system: M14 melanoma

`CCC[CH2][Sn]1([CH2]CCC)[O]C(=O)c2cccc(C)c2[O]1` was tested, and the GI50 (K-562 leukemia) was 259 nM, the TGI (K-562 leukemia) was 897 nM and the GI50 (DLD-1 colon) was 722 nM. For the same compound, the TGI (DLD-1 colon) was 2050 nM, the GI50 (SN12C renal) was 598 nM and the TGI (SN12C renal) was 1840 nM. It also gave a GI50 (U251 CNS) of 421 nM, a TGI (U251 CNS) of 1440 nM and a GI50 (EKVX NSCLC) of 1420 nM. It also gave a TGI (EKVX NSCLC) of 2770 nM, a GI50 (A498 renal) of 317 nM and a TGI (A498 renal) of 867 nM. It also gave a GI50 (MOLT-4 leukemia) of 218 nM, a TGI (MOLT-4 leukemia) of 699 nM and a GI50 (HOP-92 NSCLC) of 1280 nM. The TGI (HOP-92 NSCLC) was 2580 nM, the GI50 (NCI-H460 lung) was 2480 nM and the TGI (NCI-H460 lung) was 5750 nM. For the same compound, the GI50 (TK-10 renal) was 356 nM, the TGI (TK-10 renal) was 911 nM and the GI50 (786-0 renal) was 1070 nM. It also gave a TGI (786-0 renal) of 2260 nM, a GI50 (OVCAR-3 ovarian) of 1110 nM and a TGI (OVCAR-3 ovarian) of 2320 nM. The GI50 (MALME-3M melanoma) was 441 nM, the TGI (MALME-3M melanoma) was 1550 nM and the GI50 (CAKI-1 renal) was 258 nM. For the same compound, the TGI (CAKI-1 renal) was 852 nM, the GI50 (HCT-116 colon) was 1250 nM and the TGI (HCT-116 colon) was 2500 nM. For the same compound, the GI50 (HT29 colon) was 1500 nM, the TGI (HT29 colon) was 2970 nM and the GI50 (SNB-75 CNS) was 239 nM. It also gave a TGI (SNB-75 CNS) of 766 nM, a GI50 (KM20L2 colon) of 1350 nM and a TGI (KM20L2 colon) of 2640 nM. For the same compound, the GI50 (KM12 colon) was 1080 nM, the TGI (KM12 colon) was 2360 nM and the GI50 (OVCAR-8 ovarian) was 1040 nM. It also gave a TGI (OVCAR-8 ovarian) of 2380 nM, a GI50 (SW-620 colon) of 200 nM and a TGI (SW-620 colon) of 548 nM. For the same compound, the GI50 (SF-539 CNS) was 660 nM, the TGI (SF-539 CNS) was 1910 nM and the GI50 (SK-MEL-5 melanoma) was 1090 nM. For the same compound, the TGI (SK-MEL-5 melanoma) was 2330 nM, the GI50 (OVCAR-4 ovarian) was 1330 nM and the TGI (OVCAR-4 ovarian) was 2610 nM. The GI50 (HCC-2998 colon) was 1270 nM, the TGI (HCC-2998 colon) was 2600 nM and the GI50 (NCI-H522 lung) was 119 nM. For the same compound, the TGI (NCI-H522 lung) was 250 nM, the GI50 (SNB-19 CNS) was 363 nM and the TGI (SNB-19 CNS) was 1360 nM. It also gave a GI50 (HL-60(TB) leukemia) of 297 nM, a TGI (HL-60(TB) leukemia) of 1370 nM and a GI50 (SK-MEL-28 melanoma) of 454 nM. It also gave a TGI (SK-MEL-28 melanoma) of 1510 nM, a GI50 (HOP-62 NSCLC) of 2340 nM and a TGI (HOP-62 NSCLC) of 4160 nM. For the same compound, the GI50 (NCI-H23 lung) was 649 nM, the TGI (NCI-H23 lung) was 1980 nM and the GI50 (HCT-15 colon) was 592 nM. The TGI (HCT-15 colon) was 2700 nM, the GI50 (RPMI-8226 leukemia) was 250 nM and the TGI (RPMI-8226 leukemia) was 810 nM. It also gave a GI50 (HOP-18 NSCLC) of 1080 nM, a TGI (HOP-18 NSCLC) of 2270 nM and a GI50 (LXFL 529 NSCLC) of 141 nM. The TGI (LXFL 529 NSCLC) was 440 nM, the GI50 (UO-31 renal) was 1030 nM and the TGI (UO-31 renal) was 2220 nM. It also gave a GI50 (DMS 114 small cell lung) of 231 nM, a TGI (DMS 114 small cell lung) of 565 nM and a GI50 (OVCAR-5 ovarian) of 1780 nM. It also gave a TGI (OVCAR-5 ovarian) of 3160 nM, a GI50 (CCRF-CEM leukemia) of 260 nM and a TGI (CCRF-CEM leukemia) of 924 nM. It also gave a GI50 (ACHN renal) of 551 nM, a TGI (ACHN renal) of 1740 nM and a GI50 (UACC-62 melanoma) of 581 nM. The TGI (UACC-62 melanoma) was 1820 nM, the GI50 (SR leukemia) was 401 nM and the TGI (SR leukemia) was 1820 nM. The GI50 (A549 NSCLC) was 1460 nM, the TGI (A549 NSCLC) was 2790 nM and the GI50 (SK-OV-3 ovarian) was 1880 nM. The TGI (SK-OV-3 ovarian) was 3400 nM, the GI50 (SF-295 CNS) was 1560 nM and the TGI (SF-295 CNS) was 2990 nM. For the same compound, the GI50 (M19-MEL melanoma) was 477 nM, the TGI (M19-MEL melanoma) was 1690 nM and the GI50 (UACC-257 melanoma) was 626 nM. For the same compound, the TGI (UACC-257 melanoma) was 1950 nM, the GI50 (LOX IMVI melanoma) was 210 nM and the TGI (LOX IMVI melanoma) was 448 nM. For the same compound, the GI50 (SF-268 CNS) was 349 nM, the TGI (SF-268 CNS) was 1460 nM and the GI50 (RXF 393 renal) was 290 nM. The TGI (RXF 393 renal) was 1020 nM, the GI50 (RXF-631 renal) was 240 nM and the TGI (RXF-631 renal) was 535 nM. It also gave a GI50 (IGROV1 ovarian) of 1350 nM, a TGI (IGROV1 ovarian) of 2720 nM and a GI50 (COLO 205 colon) of 188 nM. It also gave a TGI (COLO 205 colon) of 1540 nM, a GI50 (M14 melanoma) of 577 nM and a TGI (M14 melanoma) of 1880 nM.
